In one data set the test system is gastrocnemius muscle. Nature of the data set: Measurement of muscle surface pO2 (multiwire-surface electrode, one femoral artery ligated to induce ischaemia). It is filed as in vivo, Cats. The following applies: 12.5 mg/kg i.d., suspension in Methocel, n = 4; for Cs (significance coefficient = number of measuring sites with significant pO2 increase per total number of measuring sites) / ΔpO2 (mean pO2 increase in experiments with significant pO2 increase): anaesthetized cats; for E (efficiency-index = Cs x ΔpO2): control values E between 0.1 and 1.2 Torr. The method, then: (§1) Cats of either sex were anaesthetized by i.p. injection of urethane/chloralosc (120/60 mg/kg). The intraduodenal (i.d.) administration of compounds was conducted by means of a plastic.catheter which was inserted into the duodenum following midline incision at the abdominal cavity.
Measurement of muscle surface p02. The skin above the measuring site (3-4 mm in diameter) was removed and one multiwire-surface electrode (Eschweiler, Kiel) was placed on the gastrocnemius muscle of each hindlimb. The femoral artery in one hindlimb was ligated in order to induce ischaemia. Muscle temperature was controlled by means of a thermocouple (Ellab, Copenhagen). The electrode current was measured every 6 to 8 s and collected for periods of 4 min (Hewlett-Packard programmable data logger system 3051 A). After each period, mean value and standard deviation was calculated.

Data set [1] can be described thus: Observation of toxic effects at the test dosages. It is filed as in vivo. The following applies: at the test dosage 12.5 mg/kg i.d., cats. Here is the method: as §1

This is an account of results in patent EP0017478A1, “Dialkoxy- and dioxacycloalkyl-alkyltheobromines, pharmaceutical compositions containing them and their preparation” (BEECHAM - WUELFING GmbH & Co. KG, priority 1979, dated 1980).

Consider `Cn1cnc2c1c(=O)n(CCCCC1(C)OCCO1)c(=O)n2C` [2-Methyl-2-(theobrominyl-butyl-4)-1,3-dioxalane], for which, in the data set with gastrocnemius muscle (hypoxic tissue), the “Cs (significance coefficient = number of measuring sites with significant pO2 increase per total number of measuring sites)” value was 1, the “ΔpO2 (mean pO2 increase in experiments with significant pO2 increase)” value was 3.7 Torr and the “E (efficiency-index = Cs x ΔpO2)” value was 3.7 Torr. Moreover, in the data set with gastrocnemius muscle (normoxic tissue), the “Cs (significance coefficient = number of measuring sites with significant pO2 increase per total number of measuring sites)” value is reported as 1, the “ΔpO2 (mean pO2 increase in experiments with significant pO2 increase)” value was found to be 4.8 Torr and the “E (efficiency-index = Cs x ΔpO2)” value came to 4.8 Torr. In data set [1], the toxic effects entry is listed as “No toxic effects were observed”.
